Source: patent publication US7018987B1 (priority 1998, dated 2006)

How the values were obtained:
BXPC-3 = assay type: cell-based, Human; settings: BXPC-3, 48 hours
[1] = test system: eight bacteria and two fungi tested; assay: Disk susceptibility testing, whole microbe panel; assay type: cell-based; settings: at 100 μg/disk, eight bacteria and two fungi
[2] = test system: P388 lymphocytic leukemia; assay type: cell-based, Murine; settings: murine P-388 leukemia, 48 hours
DU-145 = assay type: cell-based, Human; settings: DU-145, 48 hours
NCI-H460 = assay type: cell-based, Human; settings: NCI-H460, 48 hours
SK-Mel-3 = assay type: cell-based, Human; settings: SK-Mel-3, 48 hours
SW1736 = assay type: cell-based, Human; settings: SW1736, 48 hours
FADU = assay type: cell-based, Human; settings: FADU, 48 hours
SK-N-SH = assay type: cell-based, Human; settings: SK-N-SH, 48 hours
Neisseria gonorrhoeae = assay type: cell-based; settings: Neisseria gonorrhoeae, disk susceptibility
Solubility in water = settings: for Solubility: mg per 1 ml water at 25° C.

Row | Compound | GI50 Pancreas BXPC-3 (BXPC-3) | Microbe(s) inhibited [1] | ED50 P-388 [2] | GI50 Prostate DU-145 (DU-145) | GI50 Lung-NSC NCI-H460 (NCI-H460) | GI50 Melanoma SK-Mel-3 (SK-Mel-3) | GI50 Thyroid SW1736 (SW1736) | GI50 Pharynx FADU (FADU) | GI50 Neuroblast SK-N-SH (SK-N-SH) | Minimum inhibitory amount per disk (Neisseria gonorrhoeae) | Solubility (Solubility in water) | solubility in water (in words) (Solubility in water; water)
1 | Morpholine combretastatin A-4 3′-O-phosphate [Compound 5h] | 0.26 µg/mL | * (At 100 μg/disk no inhibition of the eight bacteria and two fungi tested.) | 0.0023 µg/mL | 0.0024 µg/mL | 0.003 µg/mL | 0.0042 µg/mL | 0.02 µg/mL | 0.0016 µg/mL | 0.039 µg/mL | – | – | –
2 | Cinchonine combretastatin A-4 3-O-phosphate [Compound 5n] | 1.6 µg/mL | – | 0.020 µg/mL | 0.030 µg/mL | 0.037 µg/mL | – | 0.089 µg/mL | 0.024 µg/mL | – | 25–50 μg/disk | 4000 µg/mL | –
3 | Quinidine combretastatin A-4 3-O-phosphate [Compound 5q] | 0.43 µg/mL | – | 0.0032 µg/mL | 0.0036 µg/mL | 0.0039 µg/mL | – | 0.11 µg/mL | 0.0033 µg/mL | – | 6.25–12.5 μg/disk | – | –
4 | Calcium combretastatin A-4 3′-O-phosphate [Compound 5a] | 0.22 µg/mL | * (At 100 μg/disk no inhibition of the eight bacteria and two fungi tested.) | 0.0011 µg/mL | 0.001 µg/mL | 0.001 µg/mL | 0.0036 µg/mL | 0.010 µg/mL | 0.001 µg/mL | 0.015 µg/mL | – | – | –
5 | Quinine combretastatin A-4 3′-O-phosphate [Compound 5p] | 2.2 µg/mL | * (At 100 μg/disk no inhibition of the eight bacteria and two fungi tested.) | 0.027 µg/mL | 0.0048 µg/mL | 0.0042 µg/mL | – | 7.5 µg/mL | 0.006 µg/mL | – | – | – | –
6 | Cesium combretastatin A-4 3′-O-phosphate [Compound 5b] | 0.31 µg/mL | * (At 100 μg/disk no inhibition of the eight bacteria and two fungi tested.) | 0.001 µg/mL | 0.0028 µg/mL | 0.0032 µg/mL | 0.0043 µg/mL | 8.4 µg/mL | 0.0023 µg/mL | 0.011 µg/mL | – | >50000 µg/mL | –
7 | Adenosine combretastatin A-4 3′-O-phosphate [Compound 5m] | 11.6 µg/mL | * (At 100 μg/disk no inhibition of the eight bacteria and two fungi tested.) | 0.16 µg/mL | 0.036 µg/mL | 0.038 µg/mL | 0.35 µg/mL | 0.092 µg/mL | 0.032 µg/mL | 0.034 µg/mL | – | – | –
8 | COc1ccc(/C=C\c2cc(OC)c(OC)c(OC)c2)cc1OP(=O)([O-])[O-].[Mg+2] [Compound 5d, Magnesium combretastatin A-4 3-O-phosphate] | 0.43 µg/mL | * (At 100 μg/disk no inhibition of the eight bacteria and two fungi tested.) | 0.0018 µg/mL | 0.01 µg/mL | 0.017 µg/mL | – | 6.8 µg/mL | 0.031 µg/mL | 0.01 µg/mL | – | 7000 µg/mL | –
9 | Sodium (E)-combretastatin A-4 3′-O-phosphate [Compound 4c] | 4.0 µg/mL | – | 0.02 µg/mL | 0.044 µg/mL | 0.038 µg/mL | 0.036 µg/mL | 11.2 µg/mL | 0.071 µg/mL | 3.1 µg/mL | 50–100 μg/disk | 4000 µg/mL | sparingly soluble in water
